Reference: patent US20070203079A1, “Methods of using small molecule compounds for neuroprotection” (priority 2005, published 2007)
Counter-ions that a name gives are not always drawn.

Legend:
Format in all cases: in vivo, C. elegans
[1] = system: worms containing Pdat-1::GFP+Pdat-1::torsinA+Pdat-1::torsinA (ΔE) after 6-OHDA exposure; assay: 6-OHDA dopaminergic neurodegeneration in worms with wt and mutant torsinA; conditions: wt and mutant torsinA co-expressed; 6-OHDA insult
Text: Previous studies have established that the “CEP” and “ADE” mechanosensory neurons in C. elegans undergo readily discernable neuronal degeneration after treatment with the dopamine-selective neurotoxin 6-OHDA (Nass et al, 2002). The toxicity of 6-OHDA is mediated through the formation of reactive oxygen species by the generation of hydrogen peroxide and […] via a nonenzymatic auto-oxidation process (Kumar et al., 1995; Foley and Riederer, 2000). […] This degeneration can be monitored in living animals by coexpressing with green fluorescent protein and categorized into three temporally and morphologically distinct stages, including neuronal process blebbing, cell body rounding with process loss, and cell body loss. These characteristic changes reproducibly appear in this order within a few hours, recapitulating observations in MPTP-treated monkeys and in 6-OHDA-treated rats, in which damage to striatal terminals leads to retrograde changes and precedes that of SNpc cell bodies (Berger et al., 1991; Herkenham et al., 1991). The actions of torsin protein in 6-OHDA-mediated neurodegeneration has recently been shown (Cao et al., J Neurosci, 25(1):3801-3812). Animals were treated with various concentrations of 6-OHDA and neurodegeneration was followed over time, as worms develop and age, by co-expression of a dopamine GFP marker in these transparent animals.
C. elegans nematodes were grown at 25° C. on NGM plates as described by Brenner (Brenner, Genetics, 1974, 77: 71-94). Two transgenic C. elegans lines were used for primary screens of the Prestwick small molecule library. A transgenic worm line expressing Pdat-1::GFP; with both wild type (Pdat-1::torsinA) or mutant (Pdat-1:::torsinA(ΔE)). Torsin-A expresses a phenotype that results in visible neurodegeneration after treatment with 6-OHDA. Transgenic worms were plated on drug plates and progeny were studied for morphological changes in the 8 dopaminergic neurons present in C. elegans.
Drugs were administered to C. elegans according to a standard procedure (Rand and Johnson, Methods Cell Biol, 1995, 48: 187-204) by mixing the solubilized drug with the agar medium on which the worms are grown. This mode of administration allows the continuous exposure of worms to the drug.
Each drug was first dissolved in an appropriate solvent, followed by adding the drug solution into pre-autoclaved media, with the volume of drug solution already taken into account. All drugs were tested at 0.5 mg/ml initial concentration, a few of which were toxic to worms and then tested at 0.1 mg/ml or 0.025 mg/ml concentration. Each plate was seeded with 100 μl concentrated E. coli OP50 bacteria
Age-synchronized worms were obtained by treating gravid adults with 2% sodium hypochlorite and 0.5M NaOH to isolate embryos (Lewis Fleming, 1995). These embryos were grown for 30 h at 25° C. At the L3 stage, larvae were incubated with 10 mM (50 mM) 6-OHDA and 2 mM (or 10 mM) ascorbic acid for 1 h with gentle agitation every 10 minutes. (Nass et al., 2002). The worms were then washed and spread onto NGM plates seeded with bacteria (OP50) and scored at time points ranging from 2 to 72 h after 6-OHDA exposure.
Immediately after 6-OHDA treatment, worms containing the transgenes were selected under a fluorescence dissecting microscope, based on the presence of GFP, and transferred to a fresh NGM plate seeded with OP50. For each time point, 30-40 worms were applied to a 2% agarose pad and immobilized with 3 mM levamisole. Worms were examined under a Nikon Eclipse E800 epifluorescence microscope equipped with an Endow GFP filter cube (Chroma Technology, Rockingham, Vt.). For ease of analysis, only the four CEP DA neurons in the head of the worm were scored. […]

[2] = system: worms containing Punc-54::Q82::GFP+Punc-54::torsinA+Punc54::torsinA (ΔE); assay: Screen for reduction of polyglutamine protein aggregates in worms with wt and mutant torsinA; conditions: differentiated by Q82::GFP lines without torsinA, with wt torsinA or with mutant torsinA
Experimental: (§1) C elegans nematodes were grown at 20° C. on NGM plates as described by Brenner (Brenner, Genetics, 1974, 77: 71-94). Several transgenic C. elegans lines were used for primary screens of the Prestwick small molecule library. A transgenic worm line expressing Punc-54::Q82-GFP; with both wild type (“wt”) (Punc=54: :torsinA) or mutant (Punc-54::torsinA(ΔE)). Torsin-A expresses a phenotype that results in visible protein aggregation under fluorescent microscope. Transgenic worms were plated on drug plates and progeny were studied for a return to soluble protein.
(§2) Drugs were administered to C. elegans according to a standard procedure (Rand and Johnson, Methods Cell Biol, 1995, 48: 187-204), by mixing the solubilized drug with the agar medium on which the worms are grown. This mode of administration allows the continuous exposure of worms to the drug.
Each drug was first dissolved in an appropriate solvent, followed by adding the drug solution into pre-autoclaved media, with the volume of drug solution already taken into account. […] Each plate was seeded with 100 μl concentrated E. coli OP50 bacteria.
(§3) The screening assays used to identify the compounds use protein aggregation readouts to determine the specificities of molecular action. […]
(§4) The methods for the aggregate analysis assay are described in Caldwell et al. (Hum Mol Genetics, 2003, 12(3): 307-319). […] MetaMorph Software (Universal Imaging Inc.) was used for pseudocoloration of images, image overlay, and aggregate size quantitation. For each worm line analyzed, average aggregate size was determined by capturing images of all aggregates in the posterior region of 30 L3-staged animals (for Q82::GFP aggregates) or all aggregates in 30 adult animals/day (for Q19::GFP analyses) at 1000× magnification. […]
(§5) To see the effect of the candidate compounds on suppressing protein misfolding and aggregation, five gravid adult worms were placed onto each drug plate and grown at 20° C. for approximately 3 days. Thirty Fl worms at L3 stage and young adult stage were counted for aggregate number.

[3] = system: worms expressing Punc-54::Q82::GFP+Punc-54::torsinA with wt torsinA only; assay: Protein aggregate assay in worms with wt torsinA only
Experimental: as §1, §2
Each drug was first dissolved in an appropriate solvent, followed by adding the drug solution into pre-autoclaved media, with the volume of drug solution already taken into account. […]
as §3, §4, §5

[4] = system: protein misfolding and aggregation in transgenic worms; assay: Preventative assay of protein aggregation (drug from hatching to L2 stage); conditions: exposure from hatching to L2 stage; scored at L3 and young adult
Experimental: To see the preventative effects of the candidate drug compounds on protein misfolding and aggregation, five gravid adult worms were placed onto each drug plate and grown at 20° C. for approximately 3 days. 35-40 Fl worms at L2 stage were picked and transferred to a control plate with the same concentration of control solvent compared to the drug plate. Thirty worms at L3 stage were counted for aggregate number 8 hours later. Thirty young adults were analyzed 32 hours later.
(§6) To calculate the scaled effectiveness of special regimen of drugs on worms based on standardized decrease in protein aggregates. The following formula was used: (A−B)/(A−C)×100%, where
(§7) A=number of aggregates for worms growing on solvent control plates
(§8) B=number of aggregates for worms grown on the specific drug plate for the entire life of the worms
C=number of aggregates for worms that received pre-L2 exposure and were then removed to solvent control plates
(§9) If the regimen has no effect, the value would equal 0%. Conversely, if the regimen was as effective as raising the worms on the drug for their entire life, the value would equal 100%.

[5] = system: protein misfolding and aggregation in transgenic worms; assay: Corrective assay of protein aggregation (drug from L2 stage onward); conditions: drug exposure from L2 stage onward; scored at L3 and young adult
Experimental: To see the corrective effect of the candidate drug compounds on protein misfolding and aggregation, five gravid adult worms were placed onto a solvent control plate and grown at 20° C. for approximately 3 days. 35-40 Fl worms at L2 stage were picked and transferred to a drug plate. Thirty worms at L3 stage were counted for aggregate number 8 hours later. Thirty young adults were analyzed 32 hours later.
as §6, §7, §8
C=number of aggregates for worms that received exposure from L2 stage (until adulthood)
as §9

[6] = system: Pdat-1::GFP+Pdat-1::α-synuclein+Pdat-1::torsinA worms; assay: α-synuclein toxicity assay, wt torsinA
Text: (§10) We have previously shown that torsinA can prevent dopamine (“DA”) neuron degeneration resulting from overexpression of α-synuclein in the DA neurons of C. elegans, while torsinA (“ΔE”) has a reduced neuroprotection (Cao et al., J Neurosci, 2005, 25(1): 3801-3812). Specifically, only 26.1±5.3% of the worms expressing Pdat-1::GFP+Pdat-1::α-synuclein maintained all 4 wildtype CEP DA neurons as 4 day adults while the percentages of the worms expressing Pdat-1::GFP+Pdat-1::α-synuclein+Pdat-1::torsinA and Pdat-1::GFP+Pdat-1::α-synuclein+Pdat-1:: torsinA (ΔE) are 57.3±1.6% and 42.2±7.3%, respectively (Cao et al., J Neurosci, 2005, 25(1): 3801-3812) (FIG. 8).
(§11) All molecules are coded by Prestwick Library number. TorsinA-dependent compounds identified from the aggregation assay have torsinA-specific effects and, therefore, are likely to function in the same manner in the α-synuclein toxicity assay. All three α-synuclein transgenic lines were exposed to the five torsinA-dependent compounds to determine their torsinA-specificity (FIG. 9). As expected, none of these compounds had any effect in Pdat-1::GFP+Pdat-1::α-synuclein when torsinA expression is absent.

[7] = system: Pdat-1::GFP+Pdat-1::α-synuclein+Pdat-1:: torsinA (ΔE) worms; assay: α-synuclein toxicity assay, mutant torsinA
Text: as §10, §11

GFP::DAT-1 = assay: Pdat-1::GFP::DAT-1 expression within DA neurons; conditions: for Neurons with cell body and dendritic/axonal GFP: water control 70%; for Mean pixel intensity of cell bodies ± SEM (fluorescence intensity): water control 1970 ± 80, compounds at 1.85, 1.49, 1.86 mM
[8] = system: transgenic worms containing the transgene Punc-54::Q82::GFP without any torsinA expression; assay: Protein aggregate assay in worms without torsinA expression
Experimental: C elegans nematodes were grown at 20° C. on NGM plates as described by Brenner (Brenner, Genetics, 1974, 77: 71-94). Several transgenic C. elegans lines were used for primary screens of the Prestwick small molecule library. A transgenic worm line expressing Punc-54::Q82-GFP; with both wild type (“wt”) (Punc=54: :torsinA) or mutant (Punc-54::torsinA(ΔE)). Torsin-A expresses a phenotype that results in visible protein aggregation under fluorescent microscope. Transgenic worms were plated on drug plates and progeny were studied for a return to soluble protein. […]
as §3, §4

[9] = Pdat-1::GFP::DAT-1, listed as Ciclopirox etnanolamine

## CC1=C(C(=O)O)N2C(=O)[C@@H](NC(=O)[C@H](N)c3ccc(O)cc3)[C@H]2SC1 [Compound 434, Cefadroxil]
[1]
  neuroprotection of dopaminergic neurons against 6-OHDA: neuroprotective actions to the same degree as compound 235

## CCn1cc(C(=O)O)c(=O)c2cc3c(cc21)OCO3 [Compound 193, Oxolinic Acid]
[2]
  Specificity in worm assay: wt torsinA
[3]
  reduction of protein aggregation: reduced protein aggregation
[4]
  preventative effect on protein aggregation: seem to be beneficial
[5]
  corrective effect on protein aggregation: seem to be beneficial
[6]
  enhanced wild type DA neuron survival: 31.4±3.7%
[7]
  enhanced DA neuron survival: no significant neuroprotection

## Cc1cc(C2CCCCC2)n(O)c(=O)c1.NCCO [Ciclopirox ethanolamine]
[1]
  neuroprotection of dopaminergic neurons against 6-OHDA: showed no neuroprotection
GFP::DAT-1; Pdat-1::GFP::DAT-1, water control 0%
  Worms with no GFP: 0%
GFP::DAT-1; Pdat-1::GFP::DAT-1, water control 30%
  Neurons with cell body GFP only: 32.3%
GFP::DAT-1; Pdat-1::GFP::DAT-1
  Neurons with cell body and dendritic/axonal GFP: 66.7%
  Mean pixel intensity of cell bodies ± SEM (fluorescence intensity): 1923 A.U.
GFP::DAT-1; [9]
  Neurons with cell body and dendritic/axonal GFP: 66.7%
  Mean pixel intensity of cell bodies ± SEM (fluorescence intensity): 1923 ± 85 A.U.
GFP::DAT-1; result in words
  effect on GFP::DAT-1 level: did not have any significant effect

## CC1(C)S[C@@H]2[C@H](NC(=O)[C@H](N)c3ccc(O)cc3)C(=O)N2[C@H]1C(=O)O [Compound 357, Amoxiciflin]
[1]
  neuroprotection of dopaminergic neurons against 6-OHDA: neuroprotective actions in this model, albeit to a lesser degree

## CCCCOc1ccc(C(=O)CCN2CCCCC2)cc1 [Compound 264, Dyclonine HCl]
[8]
  reduction of protein aggregates: reduced the presence of protein aggregates

## Cc1onc(-c2ccccc2Cl)c1C(=O)N[C@@H]1C(=O)N2[C@@H]1SC(C)(C)[C@@H]2C(=O)O [Compound 186, Cloxacillin sodium salt]
[1]
  neuroprotection of dopaminergic neurons against 6-OHDA: neuroprotective actions in this model, albeit to a lesser degree

## CC1(C)S[C@@H]2[C@H](NC(=O)C(C(=O)O)c3ccccc3)C(=O)N2[C@H]1C(=O)O (stereo partly shown) [Compound 703, Carbenicillin disodium salt]
[1]
  neuroprotection of dopaminergic neurons against 6-OHDA: neuroprotective actions to the same degree as compound 235
